According to ChEMBL document CHEMBL3217457, “Carbazolepyrrolo[2,1-c][1,4]benzodiazepine conjugates: design, synthesis, and biological evaluation” (Medchemcomm, 2011):

Legend:
[1] = tested on: COLO 205; experiment: Growth inhibition of human COLO205 cells; assay type: functional
[2] = tested on: HOP-62; experiment: Growth inhibition of human HOP62 cells; assay type: functional
[3] = tested on: MCF7; experiment: Cell cycle arrest in human MCF7 cells assessed as accumulation at G1 phase at 4 uM after 24 hrs by propidium iodide staining based flow cytometry (reference value: 57.98%); assay type: functional
[4] = tested on: KB; experiment: Growth inhibition of human KB cells; assay type: functional
[5] = tested on: MCF7; experiment: Cell cycle arrest in human MCF7 cells assessed as accumulation at G0 phase at 4 uM after 24 hrs by propidium iodide staining based flow cytometry (reference value: 2.77%); assay type: functional
[6] = tested on: MCF7; experiment: Cell cycle arrest in human MCF7 cells assessed as accumulation at G0/G1 phase at 4 uM after 24 hrs by propidium iodide staining based flow cytometry (reference value: 60.75%); assay type: functional
[7] = tested on: Calf thymus DNA; experiment: Binding affinity to calf thymus DNA assessed as change in melting temperature at compound to DNA ratio of 1:5 after 18 hrs by thermal denaturation analysis; assay type: nucleic-acid assay; details: Bos taurus
[8] = tested on: PC-3; experiment: Growth inhibition of human PC3 cells; assay type: functional
[9] = tested on: MCF7; experiment: Cell cycle arrest in human MCF7 cells assessed as accumulation at S phase at 4 uM after 24 hrs by propidium iodide staining based flow cytometry (reference value: 14.30%); assay type: functional
[10] = tested on: MCF7; experiment: Growth inhibition of human MCF7 cells; assay type: functional
[11] = tested on: SiHa; experiment: Growth inhibition of human SiHa cells; assay type: functional
[12] = tested on: MCF7; experiment: Cell cycle arrest in human MCF7 cells assessed as accumulation at G2/M phase at 4 uM after 24 hrs by propidium iodide staining based flow cytometry (reference value: 24.95%); assay type: functional
[13] = tested on: A2780; experiment: Growth inhibition of human A2780 cells; assay type: functional
[14] = tested on: A549; experiment: Growth inhibition of human A549 cells; assay type: functional
[15] = Growth inhibition of human Gurav cells; assay type: functional
[16] = tested on: ZR-75-1; experiment: Growth inhibition of human ZR-75-1 cells; assay type: functional

Row | GI50 [1] | GI50 [4] | ΔTm [7] | GI50 [8] | GI50 [10] | GI50 [13] | GI50 [14] | SMILES | GI50 [2] | Activity [3] | Activity [5] | Activity [6] | Activity [9] | GI50 [11] | Activity [12] | GI50 [15] | GI50 [16]
1 | 190 nM | 190 nM | 4.3 °C | 160 nM | 150 nM | 160 nM | 190 nM | COc1ccc(-c2ccc3c(c2)c2cc(-c4ccc(OC)cc4)ccc2n3CCCCOc2cc3c(cc2OC)C(=O)N2CCC[C@H]2C=N3)cc1 | 140 nM | 62.6% | 4.4% | 67% | 11.12% | 170 nM | 21.88% |  | 
2 | 170 nM | 180 nM | 4.8 °C | 160 nM | 130 nM | 150 nM | 180 nM | COc1ccc(-c2ccc3c(c2)c2cc(-c4ccc(OC)cc4)ccc2n3CCCOc2cc3c(cc2OC)C(=O)N2CCC[C@H]2C=N3)cc1 | 110 nM |  |  |  |  | 170 nM |  |  | 
3 | 80 nM | 110 nM | 7.2 °C | 120 nM | 40 nM | 10 nM | 130 nM | COc1ccc(-c2ccc3c(c2)c2cc(-c4ccc(OC)cc4)ccc2n3CCCN2CCN(CCCOc3cc4c(cc3OC)C(=O)N3CCC[C@H]3C=N4)CC2)cc1 | 100 nM |  |  |  |  | 120 nM |  | 120 nM | 130 nM
4 | 140 nM | 140 nM | 8.5 °C | 110 nM | 150 nM | 110 nM | 120 nM | COc1cc2c(cc1OCCCN1CCN(CCCCn3c4ccccc4c4ccccc43)CC1)N=C[C@@H]1CCCN1C2=O | 100 nM |  |  |  |  | 130 nM |  | 130 nM | 150 nM
5 |  |  |  |  |  |  |  | COc1ccc(-c2ccc3[nH]c4ccc(-c5ccc(OC)cc5)cc4c3c2)cc1 |  | 62.24% | 4.39% | 66.63% | 11.84% |  | 21.53% |  | 
6 | 180 nM | 170 nM | 5.9 °C | 150 nM | 140 nM | 140 nM | 160 nM | COc1ccc(-c2ccc3c(c2)c2cc(-c4ccc(OC)cc4)ccc2n3CCCCCOc2cc3c(cc2OC)C(=O)N2CCC[C@H]2C=N3)cc1 | 120 nM |  |  |  |  | 170 nM |  |  | 

Row | SMILES | GI50 [1] | GI50 [4] | ΔTm [7] | GI50 [8] | GI50 [10] | GI50 [13] | GI50 [14] | GI50 [2] | Activity [3] | Activity [5] | Activity [6] | Activity [9] | GI50 [11] | Activity [12] | GI50 [15] | GI50 [16]
7 | COc1cccc2c1C(=O)c1c(O)c3c(c(O)c1C2=O)C[C@@](O)(C(=O)CO)C[C@@H]3O[C@H]1C[C@H](N)[C@H](O)[C@H](C)O1 [DOXORUBICIN] | 140 nM | 170 nM |  | 1830 nM | 170 nM | 160 nM |  | 140 nM |  |  |  |  | 170 nM |  | 160 nM | 
